{"source": "patent US20100251435A1", "about": "“METHOD FOR GROWING SUGARCANE” (priority 2007, published 2010)", "type_in_all_cases": "in vivo", "key": {"[1]": {"tested_on": "sugar cane Variety RB 86-7515", "assay": "Greenhouse pot test, effect of formulated abamectin on vigour", "description": "Greenhouse test with sugarcane buds growing in pots were conducted to study the effect of formulated abamectin regarding “vigour”, tillers, plant height, leaf width and culm diameter on sugar cane Variety RB 86-7515.\n1) carretel with one bud treated with abamectin 2) carretel with one bud treated with abamectin+15% v/v of polymer 3) stalk with 3 buds untreated 4) carretel with one bud untreated 5) carretel with one bud untreated+15% v/v of polymer 6) stalk with 3 buds treated with abamectin.\nTwenty 1 L pots were filled with 16 L of clay soil, 1.6 L of sand and 8 g of nitrogen, 28 g of phosphorus (P2O5) and 16 g of potassium (K2O). Six carretels of 4 cm length with only one bud were planted in each pot (treatments 1, 2, 4 and 5). Two stalks with three buds were planted in each control pot (treatments 3 and 6) to simulate conventional planting. A layer of 3 cm of soil was used to cover the carretels. The carretels of treatments 1, 2 were treated with 200 ml/ha of abamectin, by dipping the carretels in the slurry for 3 min, based on the uptake capacity of carretels. The stalks were treated simulating a furrow application at 100 L.ha^−1 of slurry. Experimental design adopted was randomized complete block with four replications. The pots were maintained with adequate moisture during the test. Evaluations of: plant height, leaf width, culm diameter and number of tillers were done at 20, 30 and 42 days after planting."}, "[2]": {"tested_on": "sugar cane Variety RB 86-7515", "assay": "Greenhouse pot test, effect of formulated fipronil on vigour", "conditions": "result in words", "description": "Greenhouse test with sugarcane buds growing in pots were conducted to study the effect of fipronil equivalent to an application rate of 200 g. ha^−1 on “vigour”, evaluating tillers, plant height, leaf width and culm diameter on sugar cane Variety RB 86-7515.\nTwenty 1 L pots were filled with 16 L of clay soil, 1.6 L of sand and 8 g of nitrogen, 28 g of phosphorus (P2O5) and 16 g of potassium (K2O). Six carretels of 4 cm length with one bud were planted in each pot (treatments 1, 2, 4 and 5). Two stalks with three buds were planted in each control pot (treatments 3 and 6) to simulate conventional planting. A layer of 3 cm of soil was used to cover the carretels. The carretels of treatments 1 and 2 were treated with 200 g ai.ha^−1 of fipronil, by dipping the carretels in the slurry for 3 min, based on the uptake capacity of carretels. The stalks were treated simulating a furrow application at 100 L.ha^−1 of slurry. Experimental design adopted was randomized complete block with four replications. The pots were maintained with adequate moisture during the test. Evaluations of: plant height, leaf width, culm diameter and number of tillers were done at 20, 30 and 42 days after planting."}, "[3]": {"tested_on": "sugar cane Variety RB 86-7515", "assay": "Greenhouse pot test, effect of formulated clothianidin on vigour", "conditions": "carretels; result in words", "description": "Greenhouse test with sugarcane buds growing in pots were conducted to study the effect of clothianidin equivalent to an application rate of 200 g ai. ha^−1 on “vigour”, evaluating tillers, plant height, leaf width and culm diameter. This trial was conducted on sugar cane Variety RB 86-7515.\n1) carretel with one bud treated with clothianidin (200 g ai. ha^−1) 2) carretel with one bud treated with clothianidin (200 g ai. ha^−1)+15% v/v of polymer 3) stalk with 3 buds untreated 4) carretel with one bud untreated+15% v/v of polymer 5) carretel with one bud untreated 6) stalk with 3 buds treated with clothianidin (200 g ai. ha^−1).\nTwenty 1 L pots were filled with 16 L of clay soil, 1.6 L of sand and 8 g of nitrogen, 28 g of phosphorus (P2O5) and 16 g of potassium (K2O). Six carretels of 4 cm length with one bud were planted in each pot (treatments 1, 2, 4 and 5). Two stalks with three buds were planted in each control pot (treatments 3 and 6) to simulate conventional planting. A layer of 3 cm of soil was used to cover the carretels. The carretels of treatments 1 and 2 were treated with 200 g ai.ha^−1 of clothianidin, by dipping the carretels in a slurry for 3 min. The stalks were treated simulating a furrow application at 100 L.ha^−1 of slurry. The pots were maintained with adequate moisture during the test. […]"}, "[4]": {"tested_on": "sugar cane Variety RB 86 7515", "assay": "Greenhouse pot test, effect of formulated imidacloprid on vigour", "conditions": "result in words", "excerpt": "1) carretel with one bud treated with Imidacloprid (1200 g. ha^−1) 2) carretel with one bud treated with Imidacloprid (1200 g. ha^−1)+15% v/v of polymer 3) stalk with 3 buds untreated 4) carretel with one bud untreated 5) carretel with one bud untreated+15% v/v of polymer 6) stalk with 3 buds treated with Imidacloprid (1200 g. ha^−1).\nTwenty 1 L pots were filled with 16 L of clay soil, 1.6 L of sand and 8 g of nitrogen, 28 g of phosphorus (P2O5) and 16 g of potassium (K2O). Six carretels of 4 cm length with one bud were planted in each pot (treatments 1, 2, 4 and 5). Two stalks with three buds were planted in each control pot (treatments 3 and 6) to simulate conventional planting. A layer of 3 cm of soil was used to cover the carretels. The carretels of treatments 1 and 2 were treated with 1200 g ai.ha^−1 of imidacloprid, by dipping the carretels in the slurry for 3 min, based on the uptake capacity of carretels. The stalks were treated simulating a furrow application at 100 L.ha^−1 of slurry. Experimental design adopted was randomized complete block with four replications. The pots were maintained with adequate moisture during the test. Evaluations of: plant height, leaf width, culm diameter and number of tillers were done at 20, 30 and 42 days after planting."}, "[5]": {"tested_on": "sugar cane Variety RB 86-7515", "assay": "Greenhouse pot test, effect of formulated thiamethoxam on vigour", "conditions": "result in words", "experimental": "This trial was conducted on Variety RB 86-7515."}}}
{"compound": "abamectin", "values": [{"measurement": "Tillers", "setting": "[1]; Carretel with one bud, 100 g ai/ha, dipped in slurry 3 min, 42 days after planting", "result": 14, "unit": "number"}, {"measurement": "number of tillers in comparison with the control", "setting": "[1]; result in words", "result": "increase"}, {"measurement": "plant height in comparison with the control", "setting": "[1]; result in words", "result": "decrease"}]}
{"compound": "N#Cc1nn(-c2c(Cl)cc(C(F)(F)F)cc2Cl)c(N)c1[S+]([O-])C(F)(F)F", "note": "(stereo not drawn) [Fipronil, fipronil]", "values": [{"measurement": "height of the resultant plants in comparison with the control", "setting": "[2]", "result": "decreased"}, {"measurement": "number of tillers in comparison with the control", "setting": "[2]", "result": "increased"}]}
{"compound": "CN/C(=N\\[N+](=O)[O-])NCc1cnc(Cl)s1", "note": "[Clothianidin, clothianidin]", "values": [{"measurement": "number of tillers in comparison with the corresponding control experiment (untreated, one-bud)", "setting": "[3]", "result": "increased"}, {"measurement": "plant height in comparison with the corresponding control experiment (untreated, one-bud)", "setting": "[3]", "result": "slight reduction"}]}
{"compound": "O=[N+]([O-])NC1=NCCN1Cc1ccc(Cl)nc1", "note": "[Imidacloprid, imidacloprid]", "values": [{"measurement": "number of tillers in comparison with the control", "setting": "[4]", "result": "increase"}, {"measurement": "size of the effect compared with the other active ingredients", "setting": "[4]", "result": "less pronounced than with the other active ingredients"}]}
{"compound": "CN1COCN(Cc2cnc(Cl)s2)/C1=N\\[N+](=O)[O-]", "note": "[Thiamethoxam, thiamethoxam]", "values": [{"measurement": "number of tillers in comparison with the corresponding controls", "setting": "[5]; carretels", "result": "increased"}, {"measurement": "plant height in comparison with the corresponding controls", "setting": "[5]; carretels", "result": "reduced"}, {"measurement": "overall \"quality\" compared with the other treatments", "setting": "[5]; practical assessment, not apparent from the listed parameters", "result": "increase in “quality” greater than the other treatments"}]}
